# According to patent publication US10799473B2, “Methods of inhibiting IGF-1R activation or downtream signalling thereof to reduce radiation-induced cellular senescence” (The Henry M. Jackson Foundation for the Advancement of …, priority 2013, dated 2020):
# “Also recorded” adds a separate entry of the source.
# Legend:
# [1] = system: Human pulmonary artery endothelial cells (HPAEC); assay: Cell morphology / cellular volume of X-ray irradiated HPAEC; assay type: cell-based; conditions: inhibitor pretreatment (AG1024 5 μM, Ly294002 20 μM, rapamycin 500 nM), 10 Gy X-rays, within 96 h
# Protocol: (§1) Cell Culture and Reagents. Human pulmonary artery endothelial cells (HPAEC) were obtained from Cell Applications, Inc. (San Diego, Calif.) and cultured in EBM-2 basal medium containing supplements and growth factors as indicated in the manufacturer's protocol (Lonza, Walkersville, Md.). Cells were maintained at 37° C. in a humidified atmosphere containing 5% CO2. Subconfluent HPAEC at passages 4-8 were used for all experiments. The following chemical inhibitors and their final concentrations were used: AG1024 (5 μM, EMD Millipore, Billerica, Mass.), U0126 (10 μM), Ly294002 (20 μM), rapamycin (500 nM). […] 20 mM N-acetyl cysteine (NAC) was dissolved in distilled H2O.
# (§2) Cell Irradiation: HPAEC were either irradiated or sham-irradiated at subconfluence (70-90%). Irradiations were conducted using RS2000 Biological Irradiator (Rad Source Technologies, Alpharetta, Ga.) with 0 3 mm Cu shielding at a dose rate of 2.4 Gy/min (160 kV, 25 mA) at room temperature.
# Senescence-associated fl-galactosidase (SA-β-gal) Assay. SA-β-gal assay was performed according to established protocols with minor modifications (Dimri, Lee et al. 1995; Bandyopadhyay, Gatza et al. 2005). To avoid density-dependent false positive expression of SA-β-gal, HPAEC were seeded at a density of 1.0-2.0×10^4 on 12-well or 6-well dishes and allowed to reach 50-70% confluence prior to treatment. […]
# IGF-1R [2] = assay: Western blotting for IGF-1R phosphorylation in H2O2-treated HPAEC; assay type: cell-based, human
# Protocol: as §1
# (§3) Western blotting. […]
# (§4) Protein concentrations from whole cell lysates were determined using Protein® BCA Protein Assay Kit (Thermo Scientific, Rockford, Ill.). […] Proteins were detected with horseradish peroxidase-linked secondary antibodies and SuperSignal® West Pico Chemiluminescent Substrate (Pierce, Rockford, Ill.). […]
# (§5) Radiation-induced reactive oxygen species (ROS) are required for early IGF-1R phosphorylation. […] We then determined whether this ROS-induced phosphorylation is ligand-dependent by treating the cells with H2O2 in the presence of AG1024 and blotting for phosphorylated IGF-1R. […]
# caspase-3 = assay: Western blotting for cleaved caspase-3 in irradiated HPAEC (radiation-induced apoptosis); assay type: cell-based, human; conditions: 6 hours post-irradiation
# Protocol: as §1, §2, §3, §4
# Akt S473 = assay: Western blotting for phosphorylated Akt (S473) in irradiated HPAEC; assay type: cell-based, human; conditions: 5 μM AG1024, 10 Gy X-rays, 3 hours post-irradiation
# Protocol: as §1, §2, §3, §4
# [3] = system: Human pulmonary artery endothelial cells (HPAEC); assay: Senescence-associated β-galactosidase (SA-β-gal) assay in X-ray irradiated HPAEC; assay type: cell-based; conditions: HPAEC pretreated 30 minutes with inhibitor (AG1024 5 μM, Ly294002 20 μM, rapamycin 500 nM, U0126 10 μM), 10 Gy X-rays, 4 days post-irradiation
# Protocol: Cell Culture and Reagents. Human pulmonary artery endothelial cells (HPAEC) were obtained from Cell Applications, Inc. (San Diego, Calif.) and cultured in EBM-2 basal medium containing supplements and growth factors as indicated in the manufacturer's protocol (Lonza, Walkersville, Md.). Cells were maintained at 37° C. in a humidified atmosphere containing 5% CO2. Subconfluent HPAEC at passages 4-8 were used for all experiments. The following chemical inhibitors and their final concentrations were used: […] 20 mM N-acetyl cysteine (NAC) was dissolved in distilled H2O. Cell Irradiation: HPAEC were either irradiated or sham-irradiated at subconfluence (70-90%). Irradiations were conducted using RS2000 Biological Irradiator (Rad Source Technologies, Alpharetta, Ga.) with 0 3 mm Cu shielding at a dose rate of 2.4 Gy/min (160 kV, 25 mA) at room temperature. Senescence-associated fl-galactosidase (SA-β-gal) Assay. SA-β-gal assay was performed according to established protocols with minor modifications (Dimri, Lee et al. 1995; Bandyopadhyay, Gatza et al. 2005). To avoid density-dependent false positive expression of SA-β-gal, HPAEC were seeded at a density of 1.0-2.0×10^4 on 12-well or 6-well dishes and allowed to reach 50-70% confluence prior to treatment. At indicated time-points postirradiation, cells were washed twice in ice cold PBS, fixed in 2% formaldehyde/0.2% glutaraldehyde in PBS for 5 min at room temperature and washed again twice in ice-cold PBS. 1.5-2 ml of freshly prepared X-gal staining solution (1 mg/ml of 5-bromo-4-chloro-3-indolyl β-D-galactoside in 40 mM citric acid/sodium phosphate, pH 6.0 (made by mixing 36.85 parts 0.1 M citric acid solution with 63.15 parts 0.2 M sodium phosphate solution and then verifying pH to be 6.0, 0.1M citric acid was added to adjust pH when necessary), 5 mM potassium ferrocyanide, 5 mM potassium ferricyanide, 150 mM NaCl, 2 mM MgCl2) was then added to the culture dishes and the dishes were incubated for 12-20 h at 37° C. (without CO2). After incubation, cells were washed twice in ice-cold PBS and once in methanol and allowed to dry. Cells were examined for perinuclear blue staining indicative of SA-β-gal activity in at least 3 random fields.
# p53 and p21/wafl = assay: Western blotting for p53 and p21/wafl expression in irradiated HPAEC; assay type: cell-based, human; conditions: western blot
# Protocol: as §1, §2, §3, §4
# [4] = system: S6 ribosomal protein (Ser 235/236); assay: Western blotting for phosphorylated S6 ribosomal protein (Ser 235/236) in irradiated HPAEC; assay type: cell-based, human; conditions: 5 μM AG1024, 10 Gy X-rays, 72 hours post-irradiation
# Protocol: as §1, §2, §3, §4
# IGF-1R [5] = assay: Western blotting for IGF-1R phosphorylation in X-ray irradiated HPAEC; assay type: cell-based, human; conditions: 20 mM NAC 1 hour, 10 Gy X-rays, 3 hours post-irradiation
# Protocol: as §1
# Cell Irradiation: HPAEC were either irradiated or sham-irradiated at subconfluence (70-90%). […]
# as §4, §5
compound,measurement,setting,value
CC(C)(C)c1cc(C=C(C#N)C#N)cc(Br)c1O [AG1024],cellular morphology / change in cellular volume after radiation exposure,[1],prevented the change in cellular volume
same,ROS (H2O2)-induced IGF-1R phosphorylation in presence of inhibitor,"IGF-1R [2]; 5 μM AG1024 30 minutes, then 10 μM H2O2 20 minutes",not inhibited
same,"levels of active (cleaved) caspase-3, radiation-induced apoptosis","caspase-3; 5 μM AG1024 30 minutes, 50 Gy X-rays",does not regulate; also recorded: did not alter
same,radiation-induced phosphorylation of Akt S473,Akt S473,had no effect
same,"radiation-induced accelerated senescence (SA-β-gal activity, percentage of SA-β-gal positive cells)",[3],Attenuation; also recorded: significantly reduced cellular senescence
same,radiation-induced p53 and p21/wafl expression,"p53 and p21/wafl; 5 μM AG1024, 10 Gy X-rays",suppression
same,phosphorylation of S6 ribosomal protein (Ser 235/236),[4],significantly reduced
OO [H2O2],IGF-1R phosphorylation induced by H2O2 alone,"IGF-1R [2]; H2O2 1 μM and 10 μM, 20 minutes",sufficient to induce IGF-1R phosphorylation
"O=c1cc(N2CCOCC2)oc2c(-c3ccccc3)cccc12 [LY294002, 2-(4-Morpholinyl)-8-phenyl-4H-chromen-4-one]",cellular morphology / change in cellular volume after radiation exposure,[1],maintenance of normal cellular morphology
same,"radiation-induced accelerated senescence (SA-β-gal activity, percentage of SA-β-gal positive cells)",[3],attenuated
same,"radiation-induced accelerated senescence (SA-β-gal activity, percentage of SA-β-gal positive cells)",[3]; listed as Ly294002,Attenuation
same,radiation-induced p21/wafl expression,"p53 and p21/wafl; 500 nM rapamycin or 20 μM Ly294002, 10 Gy X-rays",attenuated
"CC(=O)N[C@@H](CS)C(=O)O [NAC, N-acetyl-L-cysteine]",IR-induced IGF-1R phosphorylation,IGF-1R [5],attenuated
N#CC(=C(/N)Sc1ccccc1N)/C(C#N)=C(\N)Sc1ccccc1N [U0126],"radiation-induced accelerated senescence (SA-β-gal activity, percentage of SA-β-gal positive cells)",[3],did not rescue cells from undergoing accelerated senescence
"IGF-1: exogenous IGF-1 (IGF-1R activator), activating ligand of IGF-1R","levels of active (cleaved) caspase-3, radiation-induced apoptosis","caspase-3; exogenous IGF-1 50 ng/ml 18 hours, X-rays (10 Gy in legend, 50 Gy in text)",does not regulate; also recorded: did not alter
